Literature values in patent US20120164100A1, “TEMPERATURE SENSITIVE HYDROGEL AND BLOCK COPOLYMERS” (priority 2010, published 2012).

- solubility (pH above 6, Critical Micelle Concentration): about 5 mg/mL
- half life (physiological condition): very short
SMILES: CCCCC[C@H](O)/C=C/[C@H]1[C@H](O)CC(=O)[C@@H]1C/C=C\CCCC(=O)O [PGE2, Prostaglandin E2]
